Data taken from PMC13395458, “Structural dynamics of IRE1 and its interaction with unfolded peptides” (eLife, 2026).
Changes are numbered by the printed parent chain. Numbers in names are those of the source. Where two headings read alike, the source gives them in different places. Ends that are not written are not given here.

T1: hIRE1α LD E102R (Homo sapiens, UniProt O75460, E102R)
T1 construct: His6 (N, cleaved yes); made in house; host or cells: Escherichia coli BL21DE3* RIPL
T1 sequence (O75460 24-443 E102R): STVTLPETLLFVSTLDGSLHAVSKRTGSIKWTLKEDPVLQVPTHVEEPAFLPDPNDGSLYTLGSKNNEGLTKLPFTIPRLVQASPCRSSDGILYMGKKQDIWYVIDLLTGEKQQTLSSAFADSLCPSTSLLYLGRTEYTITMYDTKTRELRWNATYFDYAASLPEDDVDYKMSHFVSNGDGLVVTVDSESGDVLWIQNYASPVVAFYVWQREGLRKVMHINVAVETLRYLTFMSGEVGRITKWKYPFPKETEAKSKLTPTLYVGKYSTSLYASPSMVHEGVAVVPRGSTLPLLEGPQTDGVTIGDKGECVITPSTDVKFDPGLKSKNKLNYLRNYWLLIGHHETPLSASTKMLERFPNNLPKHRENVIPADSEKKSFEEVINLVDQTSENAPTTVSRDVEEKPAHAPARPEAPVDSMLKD

T2: hIRE1α LD Y161R (Homo sapiens, UniProt O75460, Y161R)
T2 construct: His6 (N, cleaved yes); made in house; host or cells: Escherichia coli BL21DE3* RIPL
T2 sequence (O75460 24-443 Y161R): T1 sequence (O75460 24-443 E102R) with R79E, Y138R

T3: hIRE1α LD wild-type (Homo sapiens, UniProt O75460)
T3 construct: His6 (N, cleaved yes); made in house; host or cells: Escherichia coli BL21DE3* RIPL
T3 sequence (O75460 24-443): T1 sequence (O75460 24-443 E102R) with R79E

T4: MPZ1N-2X peptide, 5-FAM labelled (5 carboxyfluorescein (5-FAM) at its N-terminus)
T4 construct: model unfolded peptide derived from Myelin Protein Zero (MPZ); not a plain stretch of the natural protein; source: synthetic peptide; bought: GenScript (>95% purity)
T4 peptide: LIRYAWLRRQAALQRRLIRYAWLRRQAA

B1: human IRE1α luminal domain (hIRE1α LD, 24–443), wild type (domain or fragment, UniProt O75460 24-443, looked up)
chain: T1 sequence (O75460 24-443 E102R) with R79E
notes: Inositol-requiring enzyme 1 alpha (IRE1α), human, luminal domain, residues 24-443, cloned from human cDNA into pET47b(+); also called hIRE1α LD WT; WT; source: E. coli BL21DE3* RIPL, purified (Ni-NTA, HiTRAP-Q, Superdex 200); not shown: His6, N-terminal, cleaved
B2: human IRE1α luminal domain (hIRE1α LD, 24–443) E102R (domain or fragment, UniProt O75460 24-443, looked up)
chain: T1 sequence (O75460 24-443 E102R)
notes: Inositol-requiring enzyme 1 alpha (IRE1α), human, luminal domain, residues 24-443, with E102R introduced by overlap extension PCR; source: E. coli BL21DE3* RIPL, purified (Ni-NTA, HiTRAP-Q, Superdex 200); not shown: His6, N-terminal, cleaved
B3: human IRE1α luminal domain (hIRE1α LD, 24–443) Y161R (domain or fragment, UniProt O75460 24-443, looked up)
chain: T1 sequence (O75460 24-443 E102R) with R79E, Y138R
notes: Inositol-requiring enzyme 1 alpha (IRE1α), human, luminal domain, residues 24-443, with Y161R introduced by overlap extension PCR; source: E. coli BL21DE3* RIPL, purified (Ni-NTA, HiTRAP-Q, Superdex 200); not shown: His6, N-terminal, cleaved

Key:
hIRE1α = conditions: available binding affinities to hIRE1α; fluorescence anisotropy; ref Karagöz et al., 2017; Kettel et al., 2024; cited from earlier work
Excerpt: page 1: Structural Dynamics of IRE1 and its Interaction with Unfolded Peptides Supplementary File 2 Polypeptide K1/2 [µM] […] References Elif Karag¨oz G, Acosta-Alvear D, Nguyen HT, Lee CP, Chu F, Walter P. An unfolded protein-induced conformational switch activates mammalian IRE1. eLife. 2017;6:e30700. Kettel P, Marosits L, Spinetti E, Rechberger M, Giannini C, Radler P, et al. Disordered regions in the IRE1 ER lumenal domain medi ...

hIRE1α LD E102R = biological target: T1, hIRE1α LD E102R; experiment: Fluorescence anisotropy, binding of labeled MPZ1N-2X to hIRE1α LD E102R
Description: (§1) To express hIRE1α LD (24–443) human cDNA sequences were cloned into pET47b(+) to create a coding sequence with N-terminal His6-tag. Mutations of hIRE1α LD were introduced by overlap extension PCR and restriction cloning into pET47b(+). For expression of the proteins, the plasmid of interest was transformed into Escherichia coli strain BL21DE3* RIPL (Agilent Technologies). Cells were grown in Luria Broth until OD600 = 0.6–0.8. Protein expression was induced with 0.6 mM IPTG, and cells were grown in 20°C overnight. For purification, cells after harvesting were resuspended in Lysis Buffer (50 mM HEPES pH 7.2, 400 mM NaCl, 20 mM imidazole, 5% glycerol, 5 mM β -mercaptoethanol) and were lysed in Constans Systems cell disruptor at 25,000 psi. […] Protein concentrations were determined using the extinction coefficient at 280 nm predicted by the Expasy ProtParam tool (http://web.expasy.org/protparam/).
(§2) For fluorescence anisotropy measurements, the MPZ1-N-2X peptide attached to 5 carboxyfluorescein (5-FAM) at its N-terminus was obtained from GenScript at >95% purity. Binding affinities of hIRE1α LD mutants to FAM-labeled peptides were determined by measuring the change in fluorescence anisotropy on a Tecan CM Spark Micro Plate Reader with excitation at 485 nm and emission at 525 nm with increasing concentrations of hIRE1α LD variants. […]

hIRE1α LD Y161R = biological target: T2, hIRE1α LD Y161R; experiment: Fluorescence anisotropy, binding of labeled MPZ1N-2X to hIRE1α LD Y161R; conditions: 95% confidence interval of KD
Description: as §1, §2

hIRE1α LD wild-type = biological target: T3, hIRE1α LD wild-type; experiment: Fluorescence anisotropy, binding of labeled MPZ1N-2X to hIRE1α LD WT
Description: as §1, §2

[1] = biological target: T4, MPZ1N-2X peptide, 5-FAM labelled; experiment: fluorescence polarisation; fluorescence anisotropy; 90 nM 5-FAM-labelled peptide with increasing concentrations of hIRE1α LD variants; 25 mM HEPES pH 7.2, 150 mM NaCl, 2 mM DTT, 0.025% Tween 20; 30 min at 25°C; Hill fit, apparent K1/2 (does not reflect the dissociation constant); conditions: both partners purified
[2] = 95% confidence interval of KD, read-out: KD 95% confidence interval

Molecule | K1/2 (hIRE1α) | K1/2 (apparent) [1] [µM] | also measured
LIDYAWLDDQAALQDDLIDYAWLDDQAA [MPZ1N-2X-RD, MPZ1N-2X with all the arginines mutated to aspartic acid] | binding impaired |  | 
LIRYAWLRRQAA [MPZ1-N, unfolded peptide derived from Myelin Protein Zero, …] | 16 µM |  | 
LIRYAWLRRQAALQRRLIRYAWLRRQAA [MPZ1N-2X] |  |  | Kd (hIRE1α LD E102R; [2]): 5.84 to 6.96 µM; Kd (hIRE1α LD E102R; fluorescence anisotropy, 5-FAM-labeled peptide 90 nM, pH 7.2, 30 min, 25°C, R2 0.9992, read-out: KD): 6.35 µM; Kd (hIRE1α LD Y161R): 4.3 to 7.1 µM; Kd (hIRE1α LD wild-type; [2]): 1.81 to 2.53 µM; Kd (hIRE1α LD wild-type; fluorescence anisotropy, 5-FAM-labeled peptide 90 nM, pH 7.2, 30 min, 25°C, R2 0.9918, read-out: KD): 2.14 µM
LQRRISAME [MPZ1-C, peptide derived from Myelin Protein Zero, …] | 572 µM |  | 
B1 |  | 2.14 | 
B2 |  | 6.35 | 
B3 |  | 5.4 | 
